Data published in ChEMBL document CHEMBL4371067, “Discovery of N-substituted 7-azaindoles as Pan-PIM kinases inhibitors - Lead optimization - Part III” (Bioorg Med Chem Lett, 2019).
In brackets after ≈: the same amount, converted by molar mass.

Assays:
[1] = biological target: Glycogen synthase kinase-3 beta (Homo sapiens) (UniProt P49841); experiment: Inhibition of GSK3beta (unknown origin) at 1 uM relative to control
[2] = biological target: Cyclin-dependent kinase 1 (Homo sapiens) (UniProt P06493); experiment: Inhibition of CDK1 (unknown origin) at 1 uM relative to control
[3] = biological target: Cyclin-dependent kinase 2 (Homo sapiens) (UniProt P24941); experiment: Inhibition of CDK2 (unknown origin) at 0.1 uM relative to control
[4] = Cmax in rat at 10 mg/kg, po administered as single dose; assay type: ADME, organism-based; parameters: dose 10 mg/kg, route oral; details: in vivo
[5] = Oral bioavailability in rat at 10 mg/kg administered as single dose; assay type: ADME, organism-based; details: in vivo
[6] = biological target: Serine/threonine-protein kinase PIM (Homo sapiens, UniProt P11309+Q9P1W9+Q86V86); experiment: Inhibition of PIM in human KG1 cells assessed as reduction in pS6 level; assay type: cell-based
KG-1 [7] = experiment: Antitumor activity against human KG1 cells xenografted in nude mouse assessed as tumor growth at 12.5 mg/kg, po bid for 18 days relative to control; assay type: functional
[8] = biological target: Glycogen synthase kinase-3 alpha (Homo sapiens) (UniProt P49840); experiment: Inhibition of GSK3alpha (unknown origin) at 1 uM relative to control
[9] = biological target: Cyclin-dependent kinase 3 (Homo sapiens) (UniProt Q00526); experiment: Inhibition of CDK3 (unknown origin) at 1 uM relative to control
[10] = biological target: Cyclin-dependent kinase 5 (Homo sapiens) (UniProt Q00535); experiment: Inhibition of CDK5 (unknown origin) at 1 uM relative to control
[11] = biological target: Glycogen synthase kinase-3 alpha (Homo sapiens) (UniProt P49840); experiment: Inhibition of GSK3alpha (unknown origin) at 0.1 uM relative to control
[12] = Thermodynamic solubility in pH 7.4 solution; assay type: physicochemical; details: buffer, read-out: Therm_solubility
[13] = biological target: Cyclin-dependent kinase 1 (Homo sapiens) (UniProt P06493); experiment: Inhibition of CDK1 (unknown origin) at 0.1 uM relative to control
[14] = biological target: Cyclin-dependent kinase 2 (Homo sapiens) (UniProt P24941); experiment: Inhibition of CDK2 (unknown origin) at 1 uM relative to control
[15] = biological target: T1, Dual specificity tyrosine-phosphorylation-regulated kinase 3 (Homo sapiens) (UniProt O43781); experiment: Inhibition of DYRK3 (unknown origin) at 1 uM relative to control
T1 sequence (whole entry): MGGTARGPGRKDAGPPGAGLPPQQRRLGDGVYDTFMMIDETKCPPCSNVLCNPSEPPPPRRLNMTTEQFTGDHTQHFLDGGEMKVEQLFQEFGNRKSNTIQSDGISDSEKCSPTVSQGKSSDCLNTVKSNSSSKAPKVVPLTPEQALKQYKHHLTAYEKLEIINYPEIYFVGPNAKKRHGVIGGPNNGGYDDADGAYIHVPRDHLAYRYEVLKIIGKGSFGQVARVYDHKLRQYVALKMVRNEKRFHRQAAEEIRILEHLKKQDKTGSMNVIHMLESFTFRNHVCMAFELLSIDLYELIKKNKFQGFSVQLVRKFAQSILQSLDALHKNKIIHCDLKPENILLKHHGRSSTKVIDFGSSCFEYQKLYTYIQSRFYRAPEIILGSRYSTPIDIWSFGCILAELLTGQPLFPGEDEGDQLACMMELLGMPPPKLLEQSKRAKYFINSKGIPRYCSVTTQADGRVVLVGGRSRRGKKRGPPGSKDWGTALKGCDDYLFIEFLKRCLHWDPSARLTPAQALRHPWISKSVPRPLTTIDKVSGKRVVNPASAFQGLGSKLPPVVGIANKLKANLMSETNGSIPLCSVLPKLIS

KG-1 [16] = experiment: Antiproliferative activity against human KG1 cells; assay type: functional, cell-based; details: Homo sapiens, KG-1
[17] = Clearance in rat at 3 mg/kg, iv administered as single dose; assay type: ADME, organism-based; details: in vivo
[18] = biological target: Cyclin-dependent kinase 3 (Homo sapiens) (UniProt Q00526); experiment: Inhibition of CDK3 (unknown origin) at 0.1 uM relative to control
[19] = Plasma concentration in mouse xenografted with human KG1 cells at 25 mg/kg, po administered as single dose and measured at 8 hrs post dose; assay type: ADME, organism-based
KG-1 [20] = experiment: Antitumor activity against human KG1 cells xenografted in nude mouse assessed as tumor growth at 25 mg/kg, po bid for 18 days relative to control; assay type: functional
[21] = biological target: Cyclin-dependent kinase 5 (Homo sapiens) (UniProt Q00535); experiment: Inhibition of CDK5 (unknown origin) at 0.1 uM relative to control
Mus musculus [22] = experiment: In vivo inhibition of PIM in mouse xenografted with human KG1 cells assessed as reduction in phosphorylated BAD level at 25 mg/kg, po administered as single dose and measured at 8 hrs post dose relative to control; assay type: functional; details: KG-1, po
[23] = AUC (0 to infinity) in rat at 10 mg/kg, po administered as single dose; assay type: ADME, organism-based; parameters: dose 10 mg/kg, route oral, time infinity; details: in vivo
[24] = biological target: Ribosomal protein S6 kinase alpha-2 (Homo sapiens) (UniProt Q15349); experiment: Inhibition of RSK3 (unknown origin) at 0.1 uM relative to control
[25] = biological target: Serine/threonine-protein kinase pim-1 (Homo sapiens, UniProt P11309); experiment: Inhibition of PIM1 (unknown origin) assessed as reduction in BAD phosphorylation at Ser-112 residue by TR-FRET assay
[26] = Clearance in human liver microsomes assessed as drug extraction at 5 uM; assay type: ADME, Microsome; details: liver microsomes, read-out: CLH
[27] = biological target: Voltage-gated inwardly rectifying potassium channel KCNH2 (Homo sapiens, UniProt Q12809); experiment: Inhibition of human ERG
[28] = Toxicity in nude mouse xenografted with human KG1 cells assessed as body weight loss at 12.5 to 50 mg/kg, po bid for 18 days relative to control; assay type: organism-based; details: in vivo, 432 h
[29] = Drug uptake in tumor of mouse xenografted with human KG1 cells at 25 mg/kg, po administered as single dose and measured at 8 hrs post dose; assay type: ADME, organism-based, Neoplasm; details: read-out: Drug uptake
[30] = Clearance in mouse liver microsomes assessed as drug extraction at 5 uM; assay type: ADME, Microsome; details: liver microsomes, read-out: CLH
[31] = Protein binding in mouse plasma; assay type: ADME, cell-free; details: read-out: PPB (converted)
[32] = Drug uptake in tumor of mouse xenografted with human KG1 cells at 25 mg/kg, po administered as single dose and measured at 24 hrs post dose; assay type: ADME, organism-based, Neoplasm; details: read-out: Drug uptake
[33] = AUC (0 to infinity) in rat at 3 mg/kg, iv administered as single dose; assay type: ADME, organism-based; parameters: dose 3 mg/kg, route intravenous, time infinity; details: in vivo
[34] = Plasma concentration in mouse xenografted with human KG1 cells at 25 mg/kg, po administered as single dose and measured at 24 hrs post dose; assay type: ADME, organism-based
[35] = biological target: Glycogen synthase kinase-3 beta (Homo sapiens) (UniProt P49841); experiment: Inhibition of GSK3beta (unknown origin) at 0.1 uM relative to control
[36] = Half life in rat at 10 mg/kg, po administered as single dose; assay type: ADME, organism-based; details: in vivo
Mus musculus [37] = experiment: In vivo inhibition of PIM in mouse xenografted with human KG1 cells assessed as reduction in phosphorylated BAD level at 25 mg/kg, po administered as single dose and measured up to 24 hrs post dose relative to control; assay type: functional; details: KG-1, po
[38] = biological target: Serine/threonine-protein kinase pim-2 (Homo sapiens, UniProt Q9P1W9); experiment: Inhibition of PIM2 (unknown origin) assessed as reduction in BAD phosphorylation at Ser-112 residue by TR-FRET assay
[39] = Half life in rat at 3 mg/kg, iv administered as single dose; assay type: ADME, organism-based; details: in vivo
[40] = Cmax in nude mouse xenografted with human KG1 cells at 50 mg/kg, po bid for 18 days measured at 8 hrs post last dose; assay type: ADME, organism-based; parameters: dose 50 mg/kg, route oral; details: in vivo
[41] = Cmax in nude mouse xenografted with human KG1 cells at 25 mg/kg, po bid for 18 days measured at 8 hrs post last dose; assay type: ADME, organism-based; parameters: dose 25 mg/kg, route oral; details: in vivo
[42] = biological target: Ribosomal protein S6 kinase alpha-2 (Homo sapiens) (UniProt Q15349); experiment: Inhibition of RSK3 (unknown origin) at 1 uM relative to control
[43] = Permeability in human Caco2/TC7 cells at 5 uM; assay type: ADME, cell-based; details: Caco-2, read-out: permeability
[44] = Volume of distribution at steady state in rat at 3 mg/kg, iv administered as single dose; assay type: ADME, organism-based; details: in vivo, read-out: Vdss
KG-1 [45] = experiment: Antitumor activity against human KG1 cells xenografted in nude mouse assessed as tumor growth at 50 mg/kg, po bid for 18 days relative to control; assay type: functional
[46] = biological target: T1, Dual specificity tyrosine-phosphorylation-regulated kinase 3 (Homo sapiens); experiment: Inhibition of DYRK3 (unknown origin) at 0.1 uM relative to control
[47] = Cmax in nude mouse xenografted with human KG1 cells at 12.5 mg/kg, po bid for 18 days measured at 8 hrs post last dose; assay type: ADME, organism-based; parameters: dose 12.5 mg/kg, route oral; details: in vivo

inhibition [1]: 90% | inhibition [2]: 51% | inhibition [3]: 26% | Cmax [4]: 0.092 µg/mL | bioavailability [5]: 46% | EC50 [6]: 27 nM | inhibition [8]: 81% | inhibition [9]: 73% | inhibition [10]: 89% | inhibition [11]: 23% | solubility thermodynamic [12]: 86 µM (≈ 34 µg/mL) | inhibition [13]: 14% | inhibition [14]: 71% | inhibition [15]: 68% | clearance [17]: 6.8 L/h/kg | inhibition [18]: 24% | concentration at 8 h [19]: 0.92 µM | inhibition [21]: 88% | AUC(0-inf) [23]: 0.643 µg·h/mL | inhibition [24]: 20% | IC50 [25]: 0.8 nM | Ki [25]: 0.4 nM | hepatic extraction ratio at 5 µM [26]: 0.23 | concentration at 8 h [29]: 24 µM | hepatic extraction ratio at 5 µM [30]: 0.5 | fraction unbound [31]: 0.02 | concentration at 24 h [32]: 7.9 µM | AUC(0-inf) [33]: 0.405 µg·h/mL | concentration at 24 h [34]: 0.06 µM | inhibition [35]: 48% | half-life [36]: 3.59 h | IC50 [38]: 5.1 nM | half-life [39]: 2.75 h | Cmax [40]: 0.52 µM | Cmax [41]: 0.32 µM | inhibition [42]: 54% | Papp at 5 µM [43]: 41 nm/s | Vd [44]: 18.6 L/kg | inhibition [46]: 15% | Cmax [47]: 0.14 µM
SMILES: COCCC#Cc1c(Cl)c2c(Cl)cc(C(N)=O)nc2n1[C@H]1CCCNC1
T/C (KG-1 [7]): 60% | EC50 (KG-1 [16]): 39 nM | T/C (KG-1 [20]): 56% | inhibition in vivo at 25 mg/kg (Mus musculus [22]): ≤ 64% | IC50 [27]: 3000 nM | Activity [28]: < 10% | inhibition in vivo at 25 mg/kg (Mus musculus [37]): 56% | T/C (KG-1 [45]): 33%
